Patent EP4786466A1, “QUINAZOLINE DERIVATIVE, SALT THEREOF, AND PHARMACEUTICAL COMPOSITION COMPRISING SAME AS ACTIVE INGREDIENT” (Korea Research Institute of Chemical Technology, priority 2023, dated 2025)
Where two headings read alike, the source gives them in different places.

Columns and labels:
[1] = in vitro; settings: human, mcf10a cells
Protocol: (§1) MCF7 breast cancer cell lines and MCF10A normal breast cancer cell lines were treated with serial dilutions of the compounds of the present invention ranging from 1 µM to 15.63 nM for 72 hours. Cell viability was measured by the WST-8 assay (Cyto XTM cell viability assay kit; LPS solution, Daejeon, Korea) according to the manufacturer's instructions.

[2] = test system: MCF7 breast cancer cell lines; assay: Cell viability analysis, WST-8 assay, MCF7; settings: Homo sapiens, MCF7, 72 h; for viability at 1 µM: read-out: Cell viability (%) WST-8, MCF7 (1 µM), compound 1 µM, 72 hours
Protocol: as §1

[3] = test system: pENSA; assay: pENSA level by immunofluorescence (described method: in vitro kinase analysis with GST-tag-MASTL and His-tag-ENSA); assay type: cell-based; settings: for pENSA (%) Immunofluor ecense (1 µM): compound 1 µM; for IC50: read-out: IC50(nM) pENSA
Outline: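 In vitro kinase reaction using recombinant GST-tagged MASTL with His-tagged ENSA as substrate; phosphorylated ENSA (pENSA) serves as read-out of MASTL activity. Cell lines named: MCF7 breast cancer and MCF10A.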

[4] = target: T1, Recombinant GST-TAG-MASTL (Homo sapiens, UniProt Q96GX5); assay: HTRF-based kinase assay (HTRF KinEASE assay kit); assay type: biochemical; settings: for IC50: HTRF, read-out: IC50(nM) MASTL activity; for activity at 1 µM: read-out: MASTL activity (%) HTRF (1 µM)
T1 construct: GST; purchased Thermo Fisher Scientific
T1 sequence (Q96GX5 1-879): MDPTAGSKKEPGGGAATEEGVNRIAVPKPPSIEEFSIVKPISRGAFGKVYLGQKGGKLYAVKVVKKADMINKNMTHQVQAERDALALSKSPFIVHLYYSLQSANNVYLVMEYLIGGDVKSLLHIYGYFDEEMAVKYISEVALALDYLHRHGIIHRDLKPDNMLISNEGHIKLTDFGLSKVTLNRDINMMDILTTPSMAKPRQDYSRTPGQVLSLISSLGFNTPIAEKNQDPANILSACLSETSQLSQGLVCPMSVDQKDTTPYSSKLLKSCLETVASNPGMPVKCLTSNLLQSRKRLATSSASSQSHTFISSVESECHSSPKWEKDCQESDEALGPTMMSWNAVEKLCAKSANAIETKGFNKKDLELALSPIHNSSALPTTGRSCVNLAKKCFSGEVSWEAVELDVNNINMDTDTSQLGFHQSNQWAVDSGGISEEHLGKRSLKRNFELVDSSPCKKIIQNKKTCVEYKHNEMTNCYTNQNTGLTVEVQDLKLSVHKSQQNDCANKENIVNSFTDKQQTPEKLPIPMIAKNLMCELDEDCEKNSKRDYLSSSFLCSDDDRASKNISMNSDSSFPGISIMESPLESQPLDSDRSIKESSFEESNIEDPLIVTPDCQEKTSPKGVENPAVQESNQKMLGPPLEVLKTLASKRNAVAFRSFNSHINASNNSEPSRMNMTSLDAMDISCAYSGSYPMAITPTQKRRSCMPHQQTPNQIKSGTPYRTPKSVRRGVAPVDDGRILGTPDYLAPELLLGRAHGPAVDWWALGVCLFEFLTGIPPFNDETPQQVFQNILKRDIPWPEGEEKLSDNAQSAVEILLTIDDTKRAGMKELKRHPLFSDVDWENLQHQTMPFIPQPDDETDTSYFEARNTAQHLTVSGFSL
Source text: Recombinant GST-TAG-MASTL (Thermo Fisher Scientific, MA, USA) was used for HTRF-based kinase assays. The HTRF KinEASE assay kit (CisBio, MA, USA) was used according to the manufacturer's instructions.

Structure (SMILES): CS(=O)(=O)Cc1ccc(Nc2nc(Nc3cc(C4CC4)[nH]n3)c3ccccc3n2)cc1 [compound 4f, M^4-(5-cyclopropyl-1G-pyrazol-3-yl)-M^2-(4-((methylsulfonyl)methyl)phenyl)quinazoline-2,4-diamine]
- viability at 1.25 µM [1]: 33%
- viability at 1.25 µM ([2]; read-out: Cell viability (%) WST-8, MCF7, footnote a: concentration 1.25 µM, 72 hours): 94.5%
- IC50 ([2]; read-out: IC50 Cell viability (MCF7)): 2300 nM
- pENSA (%) Immunofluor ecense (1 µM) [3]: 50.5%
- IC50 [3]: 899 nM
- activity at 10 µM ([4]; footnote b: concentration 10 µM, read-out: MASTL activity (%) HTRF): 29%

Structure (SMILES): O=S(=O)(c1cccc(C(F)(F)F)c1)N1CC2CC1CN2c1nc(Nc2cc(C3CC3)[nH]n2)c2ccccc2n1 (stereo not shown) [compound 15u, M-(5-cyclopropyl-1G-pyrazol-3-yl)-2-(5-((3-(trifluoromethyl)phenyl)sulfonyl)-2,5-diazabicyclo[2.2.1]heptan-2-yl)quinazolin-4-amine]
- viability at 1 µM [1]: 121%
- viability at 1 µM [2]: 107%
- pENSA (%) Immunofluor ecense (1 µM) [3]: 100%
- IC50 [4]: 269 nM
- activity at 1 µM ([4]; compound 1 µM): 48.3%

Structure (SMILES): CC(C)(C)OC(=O)N1CC=C(c2nc(Nc3cc(C4CC4)[nH]n3)c3ccccc3n2)CC1 [compound 7, sdqs-butyl 4-(4-((5-cyclopropyl-1G-pyrazol-3-yl)amino)quinazolin-2-yl)-3,6-dihydropyridine-1(2G)-carboxylate]
- viability at 1 µM [1]: 54.9%
- viability at 1 µM [2]: 84.2%
- pENSA (%) Immunofluor ecense (1 µM) [3]: 68.2%
- IC50 [4]: 315 nM
- activity at 1 µM ([4]; compound 1 µM): 31%

Structure (SMILES): CN(C)S(=O)(=O)c1ccc(Nc2nc(Nc3ccc(CC#N)cc3)nc3ccccc23)cc1 [compound 25a, 4-((2-((4-(cyanomethyl)phenyl)amino)quinazolin-4-yl)amino)-M,M-dimethylbenzenesulfonamide]
- viability at 1 µM [1]: 71.6%
- viability at 1 µM [2]: 105%
- pENSA (%) Immunofluor ecense (1 µM) [3]: 91.2%
- activity at 1 µM ([4]; compound 1 µM): 114%

Structure (SMILES): C1=C(c2nc(Nc3cc(C4CC4)[nH]n3)c3ccccc3n2)CCNC1 [compound 8, M-(5-cyclopropyl-1G-pyrazol-3-yl)-2-(1,2,3,6-tetrahydropyridin-4-yl)quinazolin-4-amine trifluoroacetic acid]
- viability at 1 µM [1]: 80.8%
- viability at 1 µM [2]: 64.3%
- pENSA (%) Immunofluor ecense (1 µM) [3]: 53%
- activity at 1 µM [4]: 57.2%

Structure (SMILES): COC(=O)c1ccc(Nc2nc(Nc3cc(C4CC4)[nH]n3)c3ccccc3n2)cc1 [compound 4o, Methyl 4-((4-((5-cyclopropyl-1G-pyrazol-3-yl)amino)quinazolin-2-yl)amino)benzoate]
- viability at 1 µM [1]: 79.4%
- viability at 1 µM [2]: 53.4%
- pENSA (%) Immunofluor ecense (1 µM) [3]: 19.2%
- IC50 [3]: 680 nM
- activity at 1 µM ([4]; compound 1 µM): 53.8%

Structure (SMILES): Cc1ccc(-c2nc3ccccc3s2)cc1Nc1nc(Nc2cc(C3CC3)[nH]n2)c2ccccc2n1 [compound 4l, M^2-(5-(benzo[c]thiazol-2-yl)-2-methylphenyl)-M^4-(5-cyclopropyl-1G-pyrazol-3-yl)quinazoline-2,4-diamine]
- viability at 1 µM [1]: 118%
- viability at 1 µM [2]: 100%
- pENSA (%) Immunofluor ecense (1 µM) [3]: 88.6%
- activity at 1 µM ([4]; compound 1 µM): 81.5%

Structure (SMILES): CC(C)(C)OC(=O)c1ccc(Nc2nc(Nc3cc(C4CC4)[nH]n3)c3ccccc3n2)cc1 [compound 4p, sdqs-butyl 4-((4-((5-cyclopropyl-1G-pyrazol-3-yl)amino)quinazolin-2-yl)amino)benzoate]
- viability at 1 µM [1]: 86.8%
- viability at 1 µM [2]: 100%
- pENSA (%) Immunofluor ecense (1 µM) [3]: 56.2%
- activity at 1 µM ([4]; compound 1 µM): 58%

Structure (SMILES): NCCCCNC(=O)c1ccc(Nc2nc(Nc3cc(C4CC4)[nH]n3)c3ccccc3n2)cc1 [4ac, M-(4-aminobutyl)-4-((4-((5-cyclopropyl-1G-pyrazol-3-yl)amino)quinazolin-2-yl)amino)benzamide.trifluoroacetic acid]
- viability at 1 µM [1]: 102%
- viability at 1 µM [2]: 104%
- pENSA (%) Immunofluor ecense (1 µM) [3]: 149%
- activity at 1 µM [4]: 58.3%

Structure (SMILES): CC(C)(C)OC(=O)N1CC2(CCN(c3nc(Nc4cc(C5CC5)[nH]n4)c4ccccc4n3)CC2)C1 [compound 6c, sdqs-butyl 7-(4-((5-cyclopropyl-1G-pyrazol-3-yl)amino)quinazolin-2-yl)-2,7-diazaspiro[3.5]nonane-2-carboxylate]
- viability at 1 µM [1]: 129%
- viability at 1 µM [2]: 109%
- pENSA (%) Immunofluor ecense (1 µM) [3]: 90.5%
- IC50 [4]: 796 nM
- activity at 1 µM ([4]; compound 1 µM): 32.9%

Structure (SMILES): CC(C)(C)OC(=O)N1C2CCC1CN(c1nc(Nc3cc(C4CC4)[nH]n3)c3ccccc3n1)C2 [19' (B), sdqs-butyl 3-(4-((5-cyclopropyl-1G-pyrazol-3-yl)amino)quinazolin-2-yl)-3,8-diazabicyclo[3.2.1]octane-8-carboxylate]
- viability at 1 µM [1]: 101%
- viability at 1 µM [2]: 74.8%
- pENSA (%) Immunofluor ecense (1 µM) [3]: 74.7%
- IC50 [4]: 282 nM
- activity at 1 µM ([4]; compound 1 µM): 32.2%

Structure (SMILES): Cc1cc(Nc2nc(N3CC4CC3CN4Cc3ccccc3)nc3ccccc23)n[nH]1 (stereo not shown) [compound 27f, 2-(5-benzyl-2,5-diazabicyclo[2.2.1]heptan-2-yl)-M-(5-methyl-1G-pyrazol-3-yl)quinazolin-4-amine]
- viability at 1 µM [1]: 113%
- viability at 1 µM [2]: 109%
- pENSA (%) Immunofluor ecense (1 µM) [3]: 77.4%
- activity at 1 µM ([4]; compound 1 µM): 78.4%

Structure (SMILES): O=C(c1ccccc1)N1CC2CC1CN2c1nc(Nc2cc(C3CC3)[nH]n2)c2ccccc2n1 (stereo not shown) [compound 15e, (5-(4-((5-cyclopropyl-1G-pyrazol-3-yl)amino)quinazolin-2-yl)-2,5-diazabicyclo[2.2.1]heptan-2-yl)(phenyl)methanone]
- viability at 1 µM [1]: 31.3%
- viability at 1 µM [2]: 68.3%
- pENSA (%) Immunofluor ecense (1 µM) [3]: 48.2%
- activity at 1 µM ([4]; compound 1 µM): 80%

Structure (SMILES): C1=C(c2cccc3ccccc23)CCN(c2nc(Nc3cc(C4CC4)[nH]n3)c3ccccc3n2)C1 [compound 6i, M-(5-cyclopropyl-1G-pyrazol-3-yl)-2-(4-(naphthalen-1-yl)-3,6-dihydropyridin-1(2G)-yl)quinazolin-4-amine]
- viability at 1 µM [1]: 122%
- viability at 1 µM [2]: 113%
- pENSA (%) Immunofluor ecense (1 µM) [3]: 97.2%
- activity at 1 µM ([4]; compound 1 µM): 74.6%

Structure (SMILES): CC(C)C(=O)N1CC2CC1CN2c1nc(Nc2cc(C3CC3)[nH]n2)c2ccccc2n1 (stereo not shown) [compound 15d, 1-(5-(4-((5-cyclopropyl-1G-pyrazol-3-yl)amino)quinazolin-2-yl)-2,5-diazabicyclo[2.2.1]heptan-2-yl)-2-methylpropan-1-one]
- viability at 1 µM [1]: 40.3%
- viability at 1 µM [2]: 51.5%
- pENSA (%) Immunofluor ecense (1 µM) [3]: 68.6%
- activity at 1 µM ([4]; compound 1 µM): 58.8%

Structure (SMILES): c1ccc(CN2CC3CC2CN3c2nc(Nc3cc(C4CC4)[nH]n3)c3ccccc3n2)cc1 (stereo not shown) [compound 15g, 2-(5-benzyl-2,5-diazabicyclo[2.2.1]heptan-2-yl)-M-(5-cyclopropyl-1G-pyrazol-3-yl)quinazolin-4-amine]
- viability at 1 µM [1]: 42.9%
- viability at 1 µM [2]: 54.4%
- pENSA (%) Immunofluor ecense (1 µM) [3]: 65.6%
- IC50 [4]: 225 nM
- activity at 1 µM ([4]; compound 1 µM): 27.9%

Structure (SMILES): CN(C)S(=O)(=O)c1ccc(Nc2nc(Nc3ccccc3)nc3ccccc23)cc1 [compound 25d, M,M-dimethyl-4-((2-(phenylamino)quinazolin-4-yl)amino)benzenesulfonamide]
- viability at 1 µM [1]: 106%
- viability at 1 µM [2]: 90.8%
- pENSA (%) Immunofluor ecense (1 µM) [3]: 80.6%
- activity at 1 µM [4]: 107%

Structure (SMILES): O=S(=O)(c1cccc(Cl)c1)N1CC2CC1CN2c1nc(Nc2cc(C3CC3)[nH]n2)c2ccccc2n1 (stereo not shown) [compound 15q, 2-(5-((3-chlorophenyl)sulfonyl)-2,5-diazabicyclo[2.2.1]heptan-2-yl)-M-(5-cyclopropyl-1G-pyrazol-3-yl)quinazolin-4-amine]
- viability at 1.1 µM [1]: 108%
- viability at 1.1 µM ([2]; read-out: Cell viability (%) WST-8, MCF7, footnote d: concentration 1.1 µM, 72 hours): 106%
- pENSA (%) Immunofluor ecense (1 µM) [3]: 62.5%
- IC50 [4]: 545 nM
- activity at 1 µM ([4]; compound 1 µM): 49.2%

Structure (SMILES): Cc1cc(Nc2nc(N3CC4CC3CN4C(=O)c3ccccc3)nc3ccccc23)n[nH]1 (stereo not shown) [compound 27d, (5-(4-((5-methyl-1G-pyrazol-3-yl)amino)quinazolin-2-yl)-2,5-diazabicyclo[2.2.1]heptan-2-yl)(phenyl)methanone]
- viability at 1 µM [1]: 48.3%
- viability at 1 µM [2]: 94.9%
- pENSA (%) Immunofluor ecense (1 µM) [3]: 60.6%
- activity at 1 µM ([4]; compound 1 µM): 121%
